Tests used:
barnyard grass [1] = assay: Test Example 3: herbicidal effect by foliage application, Wagner pot (Table 18, symbol H); assay type: in vivo, barnyard grass (Echinochloa crus-galli); conditions: 320 g/ha
How it was run: (§1)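 Plants were sown in alluvial soil held under 0.1–0.5 cm standing water and grown 14 days in a greenhouse at 25–30 °C. An emulsifiable formulation, water-diluted to the set dose, was then sprayed onto the foliage, and effects were scored three weeks later using previously defined criteria.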

Chinese sprangletop = assay: Test Example 3: herbicidal effect by foliage application, Wagner pot (Table 18, symbol D); assay type: in vivo, chinese sprangletop (Leptochloa chinensis); conditions: 320 g/ha
How it was run: as §1

rice flat sedge = assay: Test Example 3: herbicidal effect by foliage application, Wagner pot (Table 18, symbol E); assay type: in vivo, rice flat sedge (Cyperus iria); conditions: 320 g/ha
How it was run: as §1

southern crabgrass [2] = assay: Test Example 4: herbicidal effect by soil treatment (Table 19, symbol F); assay type: in vivo, southern crabgrass (Digitaria ciliaris); conditions: amount of applied herbicide 320 g/ha
How it was run: (§2)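 Three weeks of greenhouse growth at 25° C. to 30° C. followed a uniform surface spray of water-diluted emulsion at a predetermined herbicide amount. Seeds had been sown beforehand under about 1.5 cm of sterilized diluvial soil. Grading followed criteria set out in an earlier test.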

green foxtail [3] = assay: Test Example 4: herbicidal effect by soil treatment (Table 19, symbol G); assay type: in vivo, green foxtail (Setaria viridis); conditions: amount of applied herbicide 320 g/ha
How it was run: as §2

barnyard grass [4] = assay: Test Example 4: herbicidal effect by soil treatment (Table 19, symbol H); assay type: in vivo, barnyard grass (Echinochloa crus-galli); conditions: amount of applied herbicide 320 g/ha
How it was run: as §2

wild oat [5] = assay: Test Example 4: herbicidal effect by soil treatment (Table 19, symbol I); assay type: in vivo, wild oat (Avena fatua); conditions: amount of applied herbicide 320 g/ha
How it was run: as §2

blackgrass [6] = assay: Test Example 4: herbicidal effect by soil treatment (Table 19, symbol J); assay type: in vivo, blackgrass (Alopecurus myosuroides); conditions: amount of applied herbicide 320 g/ha
How it was run: as §2

Italian ryegrass [7] = assay: Test Example 4: herbicidal effect by soil treatment (Table 19, symbol K); assay type: in vivo, Italian ryegrass (Lolium multiflorum); conditions: amount of applied herbicide 320 g/ha
How it was run: as §2

windgrass [8] = assay: Test Example 4: herbicidal effect by soil treatment (Table 19, symbol L); assay type: in vivo, windgrass (Apera spica-venti); conditions: amount of applied herbicide 320 g/ha
How it was run: as §2

velvetleaf [9] = assay: Test Example 4: herbicidal effect by soil treatment (Table 19, symbol M); assay type: in vivo, velvetleaf (Abutilon theophrasti); conditions: amount of applied herbicide 320 g/ha
How it was run: as §2

redroot pigweed [10] = assay: Test Example 4: herbicidal effect by soil treatment (Table 19, symbol N); assay type: in vivo, redroot pigweed (Amaranthus retroflexus); conditions: amount of applied herbicide 320 g/ha
How it was run: as §2

lambsquarters [11] = assay: Test Example 4: herbicidal effect by soil treatment (Table 19, symbol O); assay type: in vivo, lambsquarters (Chenopodium album); conditions: amount of applied herbicide 320 g/ha
How it was run: as §2

false cleavers = assay: Test Example 4: herbicidal effect by soil treatment (Table 19, symbol Q); assay type: in vivo, false cleavers (Galium spurium); conditions: amount of applied herbicide 320 g/ha
How it was run: as §2

southern crabgrass [12] = assay: Test Example 5: herbicidal effect by foliage application, plastic box (Table 20, symbol F); assay type: in vivo, southern crabgrass (Digitaria ciliaris); conditions: foliage application, 320 g/ha, three weeks after application
How it was run: (§3)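 Plants sown in sterilized diluvial soil and grown 14 days in a greenhouse at 25° C to 30° C, then sprayed on the foliage with the compound's emulsion diluted in water to a predetermined herbicide amount. Injury to weeds and crops scored three weeks after application on a visual rating scale.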

green foxtail [13] = assay: Test Example 5: herbicidal effect by foliage application, plastic box (Table 20, symbol G); assay type: in vivo, green foxtail (Setaria viridis); conditions: foliage application, 320 g/ha, three weeks after application
How it was run: as §3

barnyard grass [14] = assay: Test Example 5: herbicidal effect by foliage application, plastic box (Table 20, symbol H); assay type: in vivo, barnyard grass (Echinochloa crus-galli); conditions: foliage application, 320 g/ha, three weeks after application
How it was run: as §3

wild oat [15] = assay: Test Example 5: herbicidal effect by foliage application, plastic box (Table 20, symbol I); assay type: in vivo, wild oat (Avena fatua); conditions: foliage application, 320 g/ha, three weeks after application
How it was run: as §3

blackgrass [16] = assay: Test Example 5: herbicidal effect by foliage application, plastic box (Table 20, symbol J); assay type: in vivo, blackgrass (Alopecurus myosuroides); conditions: foliage application, 320 g/ha, three weeks after application
How it was run: as §3

Italian ryegrass [17] = assay: Test Example 5: herbicidal effect by foliage application, plastic box (Table 20, symbol K); assay type: in vivo, Italian ryegrass (Lolium multiflorum); conditions: foliage application, 320 g/ha, three weeks after application
How it was run: as §3

windgrass [18] = assay: Test Example 5: herbicidal effect by foliage application, plastic box (Table 20, symbol L); assay type: in vivo, windgrass (Apera spica-venti); conditions: foliage application, 320 g/ha, three weeks after application
How it was run: as §3

velvetleaf [19] = assay: Test Example 5: herbicidal effect by foliage application, plastic box (Table 20, symbol M); assay type: in vivo, velvetleaf (Abutilon theophrasti); conditions: foliage application, 320 g/ha, three weeks after application
How it was run: as §3

redroot pigweed [20] = assay: Test Example 5: herbicidal effect by foliage application, plastic box (Table 20, symbol N); assay type: in vivo, redroot pigweed (Amaranthus retroflexus); conditions: foliage application, 320 g/ha, three weeks after application
How it was run: as §3

lambsquarters [21] = assay: Test Example 5: herbicidal effect by foliage application, plastic box (Table 20, symbol O); assay type: in vivo, lambsquarters (Chenopodium album); conditions: foliage application, 320 g/ha, three weeks after application
How it was run: as §3

chickweed = assay: Test Example 5: herbicidal effect by foliage application, plastic box (Table 20, symbol P); assay type: in vivo, common chickweed (Stellaria media); conditions: foliage application, 320 g/ha, three weeks after application
How it was run: as §3

persian speedwell = assay: Test Example 5: herbicidal effect by foliage application, plastic box (Table 20, symbol R); assay type: in vivo, Persian speedwell (Veronica persica); conditions: foliage application, 320 g/ha, three weeks after application
How it was run: as §3

SMILES: Cn1ncc(O)c(-c2c(-c3ccc(F)cc3)sc3ccccc23)c1=O [1-001]
- herbicidal effect on H (barnyard grass), rating 0-5 (barnyard grass [1]): 3 (Herbicidal rate of 40% or more and less than 70%)
- herbicidal effect on D (Chinese sprangletop), rating 0-5 (Chinese sprangletop): 0 (Herbicidal rate of 5% or less (almost no effect))
- herbicidal effect on E (rice flat sedge), rating 0-5 (rice flat sedge): 5 (Herbicidal rate of 90% or more (almost completely withered))
- herbicidal effect rating, F: southern crabgrass (southern crabgrass [2]): 0 (Herbicidal rate of 5% or less (almost no effect))
- herbicidal effect rating, G: green foxtail (green foxtail [3]): 0 (Herbicidal rate of 5% or less (almost no effect))
- herbicidal effect rating, H: barnyard grass (barnyard grass [4]): 0 (Herbicidal rate of 5% or less (almost no effect))
- herbicidal effect rating, I: wild oat (wild oat [5]): 0 (Herbicidal rate of 5% or less (almost no effect))
- herbicidal effect rating, J: blackgrass (blackgrass [6]): 0 (Herbicidal rate of 5% or less (almost no effect))
- herbicidal effect rating, K: Italian ryegrass (Italian ryegrass [7]): 0 (Herbicidal rate of 5% or less (almost no effect))
- herbicidal effect rating, L: windgrass (windgrass [8]): 0 (Herbicidal rate of 5% or less (almost no effect))
- herbicidal effect rating, M: velvetleaf (velvetleaf [9]): 0 (Herbicidal rate of 5% or less (almost no effect))
- herbicidal effect rating, N: redroot pigweed (redroot pigweed [10]): 4 (Herbicidal rate of 70% or more and less than 90%)
- herbicidal effect rating, O: lambsquarters (lambsquarters [11]): 0 (Herbicidal rate of 5% or less (almost no effect))
- herbicidal effect rating, Q: false cleavers (false cleavers): 0 (Herbicidal rate of 5% or less (almost no effect))
- herbicidal effect grade, F: southern crabgrass (southern crabgrass [12]): 0 (Herbicidal rate of 5% or less (almost no effect))
- herbicidal effect grade, G: green foxtail (green foxtail [13]): 0 (Herbicidal rate of 5% or less (almost no effect))
- herbicidal effect grade, H: barnyard grass (barnyard grass [14]): 0 (Herbicidal rate of 5% or less (almost no effect))
- herbicidal effect grade, I: wild oat (wild oat [15]): 0 (Herbicidal rate of 5% or less (almost no effect))
- herbicidal effect grade, J: blackgrass (blackgrass [16]): 0 (Herbicidal rate of 5% or less (almost no effect))
- herbicidal effect grade, K: Italian ryegrass (Italian ryegrass [17]): 0 (Herbicidal rate of 5% or less (almost no effect))
- herbicidal effect grade, L: windgrass (windgrass [18]): 0 (Herbicidal rate of 5% or less (almost no effect))
- herbicidal effect grade, M: velvetleaf (velvetleaf [19]): 4 (Herbicidal rate of 70% or more and less than 90%)
- herbicidal effect grade, N: redroot pigweed (redroot pigweed [20]): 1 (Herbicidal rate of 5% or more and less than 20%)
- herbicidal effect grade, O: lambsquarters (lambsquarters [21]): 2 (Herbicidal rate of 20% or more and less than 40%)
- herbicidal effect grade, P: chickweed (chickweed): 5 (Herbicidal rate of 90% or more (almost completely withered))
- herbicidal effect grade, R: persian speedwell (persian speedwell): 3 (Herbicidal rate of 40% or more and less than 70%)

From patent publication US20230085307A1, “PYRIDAZINONE COMPOUND AND HERBICIDE” (NISSAN CHEMICAL CORPORATION, priority 2019, published 2023)
